The subject of assay [1] is ATP DAs on ACE microarray (Cy3 ATP DNA Aptamer) (DNA, aptamer) TCACTGACCTGGGGGAGTATTGCGGAGGAAGGT
The assay is described as follows: surface fluorescence loss (aptamer release), non-equilibrium. To be noted: immobilised ACE microarray; negative control ligand; no induced fit binding.

Assay [2] relates to 5′Q-5C:12 DA (Cy3 ATP DNA Aptamer with 5′Q-5C:12 ACE) (DNA, aptamer) TCACTGACCTGGGGGAGTATTGCGGAGGAAGGT
The assay can be described thus: solution FRET (Cy3/BHQ-2) equilibrium titration. To be noted: 300 mM Na+, 5 mM Mg2+; apparent; 25 °C; 200 nM aptamer; quencher ACE 5′Q-5C:12 displaced, Q:F 1:1; n = 1.3.

Assay [3] concerns 5′Q-5C:11 DA (Cy3 ATP DNA Aptamer with 5′Q-5C:11 ACE) (DNA, aptamer) TCACTGACCTGGGGGAGTATTGCGGAGGAAGGT
The assay is described as follows: solution FRET (Cy3/BHQ-2) equilibrium titration. Conditions: 300 mM Na+, 5 mM Mg2+; apparent; 25 °C; 200 nM aptamer; quencher ACE 5′Q-5C:11 displaced, Q:F 1:1; n = 1.2.

Assay [4] has as its system 5′Q-5C:10 DA (Cy3 ATP DNA Aptamer with 5′Q-5C:10 ACE) (DNA, aptamer) TCACTGACCTGGGGGAGTATTGCGGAGGAAGGT
The assay can be described thus: solution FRET (Cy3/BHQ-2) equilibrium titration. Conditions: 300 mM Na+, 5 mM Mg2+; apparent; 25 °C; 200 nM aptamer; quencher ACE 5′Q-5C:10 displaced, Q:F 1:1; n = 1.0.

For assay [5], the system named is 5′Q-5C:9 DA (Cy3 ATP DNA Aptamer with 5′Q-5C:9 ACE) (DNA, aptamer) TCACTGACCTGGGGGAGTATTGCGGAGGAAGGT
The assay can be described thus: solution FRET (Cy3/BHQ-2) equilibrium titration. Conditions: 300 mM Na+, 5 mM Mg2+; apparent; 25 °C; 200 nM aptamer; quencher ACE 5′Q-5C:9 displaced, Q:F 1:1; n = 0.7.

Assay [6] has as its system 5′Q-2T:9 DA (Cy3 ATP DNA Aptamer with 5′Q-2T:9 ACE) (DNA, aptamer) TCACTGACCTGGGGGAGTATTGCGGAGGAAGGT
The assay is described as follows: solution FRET (Cy3/BHQ-2) equilibrium titration. Conditions: 300 mM Na+, 5 mM Mg2+; apparent; 25 °C; 200 nM aptamer; quencher ACE 5′Q-2T:9 displaced, Q:F 1:1; n = 1.3.

As to `Nc1nc2c(ncn2[C@@H]2O[C@H](COP(=O)(O)OP(=O)(O)OP(=O)(O)O)[C@@H](O)[C@H]2O)c(=O)[nH]1`, the binding result in assay [1] is “no”.

Regarding `Nc1ncnc2c1ncn2[C@@H]1O[C@H](COP(=O)(O)OP(=O)(O)OP(=O)(O)O)[C@@H](O)[C@H]1O`, the “Kd,Exp Obs” value came to 1.37 mM in assay [2]; 663 µM in assay [3]; 163 µM in assay [4]; 4.70 mM in assay [5]; 85 µM in assay [6].
